Data reported in patent US20200361895A1, “NOVEL SULFONAMIDE CARBOXAMIDE COMPOUNDS” (Inflazome Limited, priority 2017, published 2020).
Counter-ions that a name gives are not always drawn. Like-named read-outs stand apart in the source and are kept apart here.

Experiments:
[1] = PK protocol, intravenous administration; format: in vivo, male Sprague Dawley rats; conditions: male, Sprague Dawley, plasma, rat; for Vd: read-out: Vdss
Procedure: Pharmacokinetic parameters were determined in male Sprague Dawley rats (Charles River, UK, 250-350 g; or Vital River Laboratory Animal Technology Co Ltd, Beijing, China, 7-9 weeks old). Animals were individually housed during the study and maintained under a 12 h light/dark cycle. Animals had free access to food and water.
For intravenous administration, compounds were formulated as a solution in water or DMSO:PBS [10:90] in 2 mL/kg dosing volume and administered via tail vein. For oral administration, compounds were formulated as a solution in DMSO:water [10:90] in 5 mL/kg dosing volume and administered orally.
Serial blood samples (about 120-300 μL) were taken from each animal at each of 8 time-points post dose (0.083, 0.25, 0.5, 1, 2, 4, 8 and 24 h) or at each of 12 time-points post dose (0.03, 0.1, 0.17, 0.25, 0.5, 1, 2, 4, 6, 8, 12 and 24 h) or pre-dose and at each of 9 time-points post dose (0.25, 0.5, 1, 2, 4, 6, 8, 12 and 24 h). Samples were held on ice for no longer than 30 minutes before centrifugation (10,000 rpm (8,385 g) for 3 minutes; or 5,696 rpm (3,000 g) for 15 minutes) for plasma generation. Plasma was frozen on dry ice prior to bioanalysis. PK parameters were generated from LC-MS/MS data using Dotmatics or Phoenix WinNonlin 6.3 software.

[2] = target: T1, NLRP3 (Homo sapiens, UniProt Q96P20); assay: Human whole blood IL1β release assay (LPS + nigericin, AlphaLisa IL-1β; HWB IC50); format: cell-based; design: Human whole blood in Li-heparin tubes was obtained from healthy donors from a volunteer donor panel; from tissue; host or cells: human whole blood from healthy donors; conditions: IL-1β release
T1 sequence (Q96P20 whole entry): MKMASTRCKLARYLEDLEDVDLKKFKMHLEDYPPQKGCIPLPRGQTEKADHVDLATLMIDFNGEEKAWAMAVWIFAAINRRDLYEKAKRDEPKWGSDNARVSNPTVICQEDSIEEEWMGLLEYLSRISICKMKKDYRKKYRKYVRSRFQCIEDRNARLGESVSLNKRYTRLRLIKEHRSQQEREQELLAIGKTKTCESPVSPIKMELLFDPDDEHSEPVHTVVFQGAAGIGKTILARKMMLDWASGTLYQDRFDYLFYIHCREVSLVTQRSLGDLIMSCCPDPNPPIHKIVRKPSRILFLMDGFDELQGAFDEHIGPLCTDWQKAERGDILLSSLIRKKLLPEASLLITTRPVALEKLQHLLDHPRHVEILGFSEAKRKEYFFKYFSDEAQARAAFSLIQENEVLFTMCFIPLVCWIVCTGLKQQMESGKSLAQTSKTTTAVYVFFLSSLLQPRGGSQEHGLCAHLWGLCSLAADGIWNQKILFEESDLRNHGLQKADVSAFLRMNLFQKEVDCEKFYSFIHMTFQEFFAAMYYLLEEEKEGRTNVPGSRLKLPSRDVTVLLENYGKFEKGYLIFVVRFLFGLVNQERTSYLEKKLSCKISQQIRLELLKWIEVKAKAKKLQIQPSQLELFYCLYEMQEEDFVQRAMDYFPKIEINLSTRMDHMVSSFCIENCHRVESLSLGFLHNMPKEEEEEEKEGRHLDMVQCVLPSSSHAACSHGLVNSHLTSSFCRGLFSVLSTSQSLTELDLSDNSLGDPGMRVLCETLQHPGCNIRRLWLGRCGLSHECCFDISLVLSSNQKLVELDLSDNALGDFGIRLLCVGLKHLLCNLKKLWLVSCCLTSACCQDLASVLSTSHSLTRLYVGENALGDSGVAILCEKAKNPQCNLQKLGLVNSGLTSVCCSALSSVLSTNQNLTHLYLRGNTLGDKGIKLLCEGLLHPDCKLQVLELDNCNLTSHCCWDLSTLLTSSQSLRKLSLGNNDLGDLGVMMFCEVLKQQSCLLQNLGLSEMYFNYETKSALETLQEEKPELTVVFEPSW
Summary of the method: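 IL-1β in plasma supernatant quantified by AlphaLisa after nigericin (10 μM final, 1 h, 37 °C) triggering of human whole blood that had been preincubated 3 h with LPS (1 μg/ml) plus compound (half-log, 8 points, from 10 μM). IC50 by variable-slope four-parameter regression.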

[3] = target: T1, NLRP3; assay: THP-1 cells pyroptosis assay (LPS + nigericin, resazurin readout; THP IC50); format: cell-based; design: Seed THP-1 cells (25,000 cells/well) containing 1.0 μg/ml LPS in 40 μl of RPMI medium; host or cells: THP-1 cells
Summary of the method: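 IC50 from 4-parameter fit of resazurin fluorescence (100 μM, 1-2 hrs), reflecting surviving cells after pyroptosis. LPS-primed (1 μg/ml) THP-1 cells in FBS-free RPMI got compound for 3 hrs at 37° C (top 10 μM, half-log, 8 points), then nigericin 5 μM for 1 hr.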

Structure (SMILES)	AUC ([1]; dose 1 mg/kg) [ng·h/mL]	clearance ([1]; dose 1 mg/kg) [mL/min/kg]	half-life ([1]; dose 1 mg/kg) [h]	Vd ([1]; dose 1 mg/kg) [L/kg]	IC50 [2] [nM]	IC50 [3] [nM]	AUC ([1]; dose 1.69 mg/kg) [ng·h/mL]	clearance ([1]; dose 1.69 mg/kg) [mL/min/kg]	half-life ([1]; dose 1.69 mg/kg) [h]	Vd ([1]; dose 1.69 mg/kg) [L/kg]	AUC ([1]; dose 1.7 mg/kg) [ng·h/mL]	clearance ([1]; dose 1.7 mg/kg) [mL/min/kg]	half-life ([1]; dose 1.7 mg/kg) [h]	Vd ([1]; dose 1.7 mg/kg) [L/kg]
CC(C)c1cc(F)cc(-c2ccnc(C#N)c2)c1NC(=O)NS(=O)(=O)c1ccn(C(C)C)n1 [Example 28, N-((2-(2-Cyanopyridin-4-yl)-4-fluoro-6-iso-propylphenyl)carbamoyl)-1-iso-propyl-1H-pyrazole-3-sulfonamide]	386	43.3	1.2	1.07	≤ 500	≤ 500								
CC(C)c1cc(F)cc(C2CCOCC2)c1NC(=O)NS(=O)(=O)c1cc(C(=O)N(C)C)n(C)n1 [Example 30, 3-(N-((4-Fluoro-2-iso-propyl-6-(tetrahydro-2H-pyran-4-yl)phenyl)carbamoyl)sulfamoyl)-N,N,1-trimethyl-1H-pyrazole-5-carboxamide, sodium salt]	182	91.3	2.3	2.72	≤ 500	≤ 5000								
CC(C)c1cc(F)cc(-c2cccnc2)c1NC(=O)NS(=O)(=O)c1cc(C(=O)N(C)C)n(C)n1 [Example 33, 3-(N-((4-Fluoro-2-iso-propyl-6-(pyridin-3-yl)phenyl)carbamoyl)sulfamoyl)-N,N,1-trimethyl-1H-pyrazole-5-carboxamide, sodium salt]	274	60.7	6.3	3.95	≤ 500	≤ 500								
CC(C)c1cc(F)cc(-c2cnn(C)c2)c1NC(=O)NS(=O)(=O)c1cc(C(=O)N(C)C)n(C)n1 [Example 34, 3-(N-((4-Fluoro-2-iso-propyl-6-(1-methyl-1H-pyrazol-4-yl)phenyl)carbamoyl)sulfamoyl)-N,N,1-trimethyl-1H-pyrazole-5-carboxamide, sodium salt]	661	25.2	12.1	3.03	≤ 500	≤ 1000								
COc1cc(-c2cc(F)cc(C(C)C)c2NC(=O)NS(=O)(=O)c2cc(CN(C)C)n(C)n2)ccn1 [Example 36, 5-((Dimethylamino)methyl)-N-((4-fluoro-2-iso-propyl-6-(2-methoxypyridin-4-yl)phenyl)carbamoyl)-1-methyl-1H-pyrazole-3-sulfonamide]	356	47.6	0.5	0.8	≤ 500	≤ 500								
COc1cc(-c2cc(F)cc(C(C)C)c2NC(=O)NS(=O)(=O)c2cc(CN(C)C)n(C(C)C)n2)ccn1 [Example 37, 5-((Dimethylamino)methyl)-N-((4-fluoro-2-iso-propyl-6-(2-methoxypyridin-4-yl)phenyl)carbamoyl)-1-iso-propyl-1H-pyrazole-3-sulfonamide]	248	67.2	0.3	1.32	≤ 500	≤ 500								
CC(C)c1cc(F)cc(-c2cccc(C#N)c2)c1NC(=O)NS(=O)(=O)c1cc(CN(C)C)n(C)n1 [Example 38, N-((3′-Cyano-5-fluoro-3-iso-propyl-[1,1′-biphenyl]-2-yl)carbamoyl)-5-((dimethylamino)methyl)-1-methyl-1H-pyrazole-3-sulfonamide]	375	51.5	1.2	1.14	≤ 500	≤ 500								
CC(C)c1cc(F)cc(-c2cccnc2)c1NC(=O)NS(=O)(=O)c1cc(CN(C)C)n(C)n1 [Example 44, 5-((Dimethylamino)methyl)-N-((4-fluoro-2-isopropyl-6-(pyridin-3-yl)phenyl)carbamoyl)-1-methyl-1H-pyrazole-3-sulfonamide]	259	64.9	0.5	0.75	≤ 500	≤ 500								
Cc1cc(-c2cc(F)cc(C(C)C)c2NC(=O)NS(=O)(=O)c2cc(CN(C)C)n(C)n2)n(C)n1 [Example 45]	259	65.6	0.5	0.98	≤ 500	≤ 500								
CC#Cc1cc(-c2cc(F)cc(C(C)C)c2NC(=O)NS(=O)(=O)c2ccn(C(C)C)n2)ccn1 [Example 51, N-((4-Fluoro-2-isopropyl-6-(2-(prop-1-yn-1-yl)pyridin-4-yl)phenyl)carbamoyl)-1-isopropyl-1H-pyrazole-3-sulfonamide]	600	27.8	3.7	3.68	≤ 500	≤ 500								
CC(C)c1cc(F)cc(-c2ccnc(C#N)c2)c1NC(=O)NS(=O)(=O)c1cn(C(C)C)cn1 [Example 54, N-((2-(2-Cyanopyridin-4-yl)-4-fluoro-6-isopropylphenyl)carbamoyl)-1-isopropyl-1H-imidazole-4-sulfonamide]	200	85.4	1.6	2.5	≤ 500	≤ 500								
COc1cc(-c2cc(F)c3c(c2NC(=O)NS(=O)(=O)c2ccn(C(C)C)n2)CCC3)ccn1 [Example 55, N-((7-Fluoro-5-(2-methoxypyridin-4-yl)-2,3-dihydro-1H-inden-4-yl)carbamoyl)-1-isopropyl-1H-pyrazole-3-sulfonamide]	1860	9.8	6.9	3.25	≤ 1000	≤ 500								
CC(C)c1cc(F)cc(-c2cccnc2)c1NC(=O)NS(=O)(=O)c1ccn(C[C@@H](C)O)n1 [Example 60, (R)-N-((4-Fluoro-2-isopropyl-6-(pyridin-3-yl)phenyl)carbamoyl)-1-(2-hydroxypropyl)-1H-pyrazole-3-sulfonamide]	300	56.3	1	1.22	≤ 500	≤ 500								
COc1cc(-c2ccc3c(c2NC(=O)NS(=O)(=O)c2ccn(CCN(C)C)n2)CCC3)ccn1 [Example 61, 1-(2-(Dimethylamino)ethyl)-N-((5-(2-methoxypyridin-4-yl)-2,3-dihydro-1H-inden-4-yl)carbamoyl)-1H-pyrazole-3-sulfonamide]					≤ 500	≤ 500	1140	24.6	1.2	0.6				
CCn1nc(S(=O)(=O)NC(=O)Nc2c(-c3ccnc(OC)c3)ccc3c2CCC3)cc1CN(C)C [Example 64, 5-((Dimethylamino)methyl)-1-ethyl-N-((5-(2-methoxypyridin-4-yl)-2,3-dihydro-1H-inden-4-yl)carbamoyl)-1H-pyrazole-3-sulfonamide]					≤ 500	≤ 500					2710	10.5	3.8	1.23
COc1cc(-c2ccc3c(c2NC(=O)NS(=O)(=O)N(C)C2CCN(C)C2)CCC3)ccn1 (stereo not drawn) [Example 122, 3-(N-Methyl-N-(1-methylpyrrolidin-3-yl)sulfamoyl)-1-(5-(2-methoxypyridin-4-yl)-2,3-dihydro-1H-inden-4-yl)urea]	1320	12.6	11.1	8.69	≤ 500	≤ 500								
CC(C)n1ccc(S(=O)(=O)NC(=O)Nc2c(-c3ccncc3)cc(F)c3c2CCC3)n1 [Example 205, N-((7-Fluoro-5-(pyridin-4-yl)-2,3-dihydro-1H-inden-4-yl)carbamoyl)-1-isopropyl-1H-pyrazole-3-sulfonamide]	4870	3.4	2.6	0.57	≤ 500	≤ 500								
CC(C)n1ccc(S(=O)(=O)NC(=O)Nc2c(-c3ccnnc3)ccc3c2CCC3)n1 [Example 223, 1-Isopropyl-N-((5-(Pyridazin-4-yl)-2,3-dihydro-1H-inden-4-yl)carbamoyl)-1H-pyrazole-3-sulfonamide, sodium salt]	1740	9.6	0.9	0.31	≤ 500	≤ 500								
